Assay results reported in the NIST ThermoML archive (doi:10.1021/je700260f).

Conditions: 303.15 K, Liquid, Vibrating tube method

FC(C(F)(F)F)C(F)(F)F [1,1,1,2,3,3,3-heptafluoropropane]
Conditions | mass density [kg/m3]
23528 kPa | 1493.1
23717 kPa | 1493.9
23749 kPa | 1494.1
23780 kPa | 1494.1
23812 kPa | 1494.2
23848 kPa | 1494.4
23884 kPa | 1494.5
23911 kPa | 1494.7
23938 kPa | 1494.6
23969 kPa | 1494.8
24001 kPa | 1494.9
24032 kPa | 1495.2
24063 kPa | 1495.2
24107 kPa | 1495.5
24143 kPa | 1495.5
24178 kPa | 1495.8
24209 kPa | 1495.8
24240 kPa | 1495.8
24271 kPa | 1496.1
24303 kPa | 1496.1
24338 kPa | 1496.2
24370 kPa | 1496.4
24397 kPa | 1496.4
24429 kPa | 1496.6
24461 kPa | 1496.8
24496 kPa | 1496.7
24528 kPa | 1497
24559 kPa | 1497.1
24590 kPa | 1497.1
24626 kPa | 1497.4
24654 kPa | 1497.4
24682 kPa | 1497.4
24714 kPa | 1497.6
24750 kPa | 1497.8
24778 kPa | 1497.8
24809 kPa | 1497.9
24844 kPa | 1498.2
24868 kPa | 1498.2
24901 kPa | 1498.4
24928 kPa | 1498.3
24952 kPa | 1498.5
24987 kPa | 1498.7
25022 kPa | 1498.7
25049 kPa | 1498.9
25077 kPa | 1498.9
25110 kPa | 1499.1
25135 kPa | 1499.1
25167 kPa | 1499.3
25195 kPa | 1499.1
25223 kPa | 1499.5
25247 kPa | 1499.5
25287 kPa | 1499.7
25310 kPa | 1499.8
25346 kPa | 1499.9
25370 kPa | 1499.9
25411 kPa | 1500.1
25443 kPa | 1500.1
25467 kPa | 1500.4
25503 kPa | 1500.4
25528 kPa | 1500.5
25561 kPa | 1500.7
25602 kPa | 1500.8
25630 kPa | 1501
25658 kPa | 1501.1
25686 kPa | 1501
25715 kPa | 1501.2
25740 kPa | 1501.3
25774 kPa | 1501.4
25801 kPa | 1501.6
25837 kPa | 1501.5
25858 kPa | 1501.5
25891 kPa | 1501.9
25911 kPa | 1501.9
25944 kPa | 1502
25972 kPa | 1502.1
26000 kPa | 1502.2
26025 kPa | 1502.4
26056 kPa | 1502.4
26076 kPa | 1502.6
26109 kPa | 1502.6
26134 kPa | 1502.8
26158 kPa | 1502.9
26191 kPa | 1502.9
26216 kPa | 1502.9
26252 kPa | 1503
26284 kPa | 1503.3
26307 kPa | 1503.3
26336 kPa | 1503.4
26361 kPa | 1503.5
26394 kPa | 1503.6
26418 kPa | 1503.8
26512 kPa | 1503.9
26545 kPa | 1504.1
26714 kPa | 1504.6
26743 kPa | 1504.8
26776 kPa | 1504.9
26801 kPa | 1505.1
26834 kPa | 1505.2
26858 kPa | 1505.2
26891 kPa | 1505.3
26924 kPa | 1505.5
26948 kPa | 1505.5
26981 kPa | 1505.7
27006 kPa | 1505.7
27035 kPa | 1505.9
27060 kPa | 1506
27246 kPa | 1506.5
27275 kPa | 1506.7
27304 kPa | 1506.8
27334 kPa | 1506.8
27368 kPa | 1507.1
27464 kPa | 1507.4
28427 kPa | 1510.7
28456 kPa | 1510.8
28486 kPa | 1510.9
28516 kPa | 1510.9
28541 kPa | 1511.1
28576 kPa | 1511.2
28601 kPa | 1511.3
28636 kPa | 1511.4
28661 kPa | 1511.3
28700 kPa | 1511.5
28729 kPa | 1511.7
28768 kPa | 1511.7
28793 kPa | 1511.8
28832 kPa | 1512
28858 kPa | 1512.2
28893 kPa | 1512.3
28924 kPa | 1512.3
28967 kPa | 1512.6
28997 kPa | 1512.6
29020 kPa | 1512.7
29047 kPa | 1512.7
29074 kPa | 1512.8
29113 kPa | 1513
29139 kPa | 1513
29169 kPa | 1513
29196 kPa | 1513.3
29235 kPa | 1513.4
29267 kPa | 1513.4
29298 kPa | 1513.6
29323 kPa | 1513.6
29349 kPa | 1513.7
29389 kPa | 1513.9
29429 kPa | 1514.1
29461 kPa | 1514.1
29492 kPa | 1514.2
29527 kPa | 1514.4
29554 kPa | 1514.5
29584 kPa | 1514.6
29614 kPa | 1514.7
29645 kPa | 1514.6
29676 kPa | 1514.8
29706 kPa | 1515
29746 kPa | 1515
29773 kPa | 1515.3
29800 kPa | 1515.3
29831 kPa | 1515.3
29866 kPa | 1515.5
29892 kPa | 1515.6
29927 kPa | 1515.6
29953 kPa | 1515.7
29984 kPa | 1515.8
30015 kPa | 1516
30043 kPa | 1516.2
30079 kPa | 1516.2
30110 kPa | 1516.3
30145 kPa | 1516.4
30176 kPa | 1516.5
30211 kPa | 1516.5
30247 kPa | 1516.7
30277 kPa | 1516.8
30316 kPa | 1516.9
30341 kPa | 1516.9
30376 kPa | 1517.1
30406 kPa | 1517.2
30437 kPa | 1517.3
30464 kPa | 1517.4
30502 kPa | 1517.5
30529 kPa | 1517.6
30561 kPa | 1517.7
30597 kPa | 1517.8
30619 kPa | 1518
30655 kPa | 1518.1
30678 kPa | 1518.1
30713 kPa | 1518.1
30735 kPa | 1518.4
30769 kPa | 1518.4
30805 kPa | 1518.6
30842 kPa | 1518.6
30873 kPa | 1518.8
30910 kPa | 1518.8
30945 kPa | 1518.9
30977 kPa | 1519.1
31009 kPa | 1519
31044 kPa | 1519.2
31076 kPa | 1519.4
31117 kPa | 1519.6
31149 kPa | 1519.7
31186 kPa | 1519.7
31223 kPa | 1519.8
31256 kPa | 1519.8
31292 kPa | 1519.9
31319 kPa | 1520.1
31351 kPa | 1520.3
